# In publication PMC11173382, “In Vitro Investigations into the Potential Drug Interactions of Pseudoginsenoside DQ Mediated by Cytochrome P450 and Human Drug Transporters” (Molecules, 2024):
# Assays:
# hMDR1(P-gp) = target: T1, hMDR1(P-gp) (Homo sapiens, UniProt P08183); assay: MDCK II-MDR1 drug transport assay (3H-digoxin); format: in vitro ADME; conditions: for Transport activity of P-gp (main text: percentage inhibition): negative control = 100%
# T1 construct: host or cells: MDCKII-MDR1
# Excerpt: (§1) Drug transporters mediate the cellular uptake and efflux of their substrates. Therefore, cell lines overexpressing a drug transporter can be utilized to investigate inhibitors of the transporter by assessing changes in substrate uptake. For each drug transporter, we selected a well-characterized inhibitor as the positive control. Radiolabeled substrates were used to indicate the decrease in transport efficiency when the drug transporters were inhibited by PDQ or the control inhibitors.
# (§2) The concentrations of the control drugs and the substrates were stated in the assay details. Working solutions of the control inhibitors, the radiolabeled substrates, and each dose of PDQ were prepared at 200 times (200×) more concentrated solutions with DMSO for further dilution.
# (§3) Transporter-overexpressed cell lines. Human organic anion transporter-overexpressed cell lines MDCKII-OAT1 and S2-OAT3, human organic anion transport polypeptide-overexpressed cell lines HEK293A-OATP1B1 and HEK293A-OATP1B3, human organic cation transporter 2-overexpressed cell line S2-OCT2, and human multi-drug resistance protein MDR1 (or P-gp)-overexpressed cell line MDCKII-MDR1 were gifts from Japan Fuji Biomedical Co., Ltd. (Fuji, Shizuoka Prefecture, Japan). Breast cancer resistance protein-overexpressed vesicles (sf9-BCRP vesicle) were purchased from GenoMembrane Co., Ltd. (Yokohama, Kanagawa, Japan).
# All reagents were pre-warmed to 37 °C. […] The plate was incubated for 20 min. […] Each sample was replicated three times (N = 3).
# (§4) In = [100 × (U − U0)/(Uc − U0)]%(3)
# The results were expressed as mean ± standard deviation (SD) and analyzed with GraphPad Prism 8.0 software (CA, USA). The IC50 of PDQ was curve-fitted with the FORECAST function.
# hOATP1B3 = target: T2, hOATP1B3 (Homo sapiens, UniProt Q9NPD5); assay: Substrates uptake assay, HEK293A-OATP1B3 cells (3H-EG); format: in vitro ADME
# T2 sequence (Q9NPD5 1-702): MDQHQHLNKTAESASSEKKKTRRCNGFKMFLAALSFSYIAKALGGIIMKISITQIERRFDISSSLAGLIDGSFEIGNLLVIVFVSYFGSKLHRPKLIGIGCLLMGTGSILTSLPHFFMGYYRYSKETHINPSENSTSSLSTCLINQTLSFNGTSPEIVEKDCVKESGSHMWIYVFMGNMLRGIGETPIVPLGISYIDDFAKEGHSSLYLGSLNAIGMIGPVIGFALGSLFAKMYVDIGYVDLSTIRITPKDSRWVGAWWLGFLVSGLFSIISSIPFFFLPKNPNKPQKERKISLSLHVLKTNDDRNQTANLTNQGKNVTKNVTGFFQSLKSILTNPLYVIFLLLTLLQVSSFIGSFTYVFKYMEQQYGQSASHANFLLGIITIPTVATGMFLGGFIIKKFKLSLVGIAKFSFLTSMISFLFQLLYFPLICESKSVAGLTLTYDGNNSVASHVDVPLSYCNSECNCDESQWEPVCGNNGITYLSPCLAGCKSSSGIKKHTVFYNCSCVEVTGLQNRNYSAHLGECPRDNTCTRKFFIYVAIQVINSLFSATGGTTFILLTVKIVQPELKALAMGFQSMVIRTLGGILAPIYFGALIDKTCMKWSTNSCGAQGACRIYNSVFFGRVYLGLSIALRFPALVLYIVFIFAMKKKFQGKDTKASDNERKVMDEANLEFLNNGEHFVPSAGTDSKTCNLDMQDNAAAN
# Excerpt: as §1, §2, §3
# Substrates uptake assay. In this assay, we studied the inhibition of PDQ against transporters OAT1, OAT3, OCT2, OATP1B1 and OATP1B3 with MDCKII-OAT1, S2-OAT3, S2-OCT2, HEK293A-OATP1B1and HEK293A-OATP1B3 cells, respectively. The radiolabeled substrates for OAT1, OAT3, OATP1B1, OATP1B3 and OCT2 were […], respectively (Table 5). Probenecid ([…]) was the positive control inhibitor of OAT1 and OAT3, while rifampicin ([…]) served as the control drug of OATP1B1 and OATP1B3. For OCT2, we used […] cimetidine to compare with the inhibitory effect of PDQ. Two times (2×) more concentrated working solutions of the drugs and the substrate were prepared with Dulbecco’s phosphate-buffered saline (DPBS, Gibco, Grand Island, NY, USA.). Then, an equal volume of 2× drug solution and 2× radiolabeled substrate solution were mixed as the working mix. All reagents were pre-warmed to 37 °C.
# The cells were digested with 0.05% trypsin/EDTA. The density of the single-cell suspension was adjusted to 2.0 × 10^5 cells/mL for S2 cells and to 1.5 × 10^5 cells/mL for MDCK II and HEK293A cells. The cell suspension was then added to the reservoirs of the 24-well plate for culture until full confluency. The medium in the wells was removed, and the wells were washed with DPBS. Then, the plate was incubated for 10 min with pre-warmed DPBS in the wells. After removing DPBS, […] of working mix was added to each well to initiate the substrate uptake process. The reaction time was 5 min for S2-OCT2 cells, while the other four types of cells were incubated with the reaction mix for 2 min. Cold DPBS was used to terminate the substrate transportation. To each well, […] NaOH ([…]) was added to lyse the cells. Then, […] cell lysate was transferred to the counting vials, and 3 mL scintillation cocktail (Aquasol-2, PerkinElmer, Waltham, MA, USA) was added. […] Each sample was replicated three times (N = 3).
# as §4
# The results were expressed as mean ± standard deviation (SD) and analyzed with GraphPad Prism 8.0 software (CA, USA). The IC50 of PDQ was curve-fitted with the FORECAST function. Statistical significance was calculated using a two-tailed test, and a p value < 0.05 was considered as significant.
# [1] = cited from earlier work
# T1 sequence (P08183 whole entry): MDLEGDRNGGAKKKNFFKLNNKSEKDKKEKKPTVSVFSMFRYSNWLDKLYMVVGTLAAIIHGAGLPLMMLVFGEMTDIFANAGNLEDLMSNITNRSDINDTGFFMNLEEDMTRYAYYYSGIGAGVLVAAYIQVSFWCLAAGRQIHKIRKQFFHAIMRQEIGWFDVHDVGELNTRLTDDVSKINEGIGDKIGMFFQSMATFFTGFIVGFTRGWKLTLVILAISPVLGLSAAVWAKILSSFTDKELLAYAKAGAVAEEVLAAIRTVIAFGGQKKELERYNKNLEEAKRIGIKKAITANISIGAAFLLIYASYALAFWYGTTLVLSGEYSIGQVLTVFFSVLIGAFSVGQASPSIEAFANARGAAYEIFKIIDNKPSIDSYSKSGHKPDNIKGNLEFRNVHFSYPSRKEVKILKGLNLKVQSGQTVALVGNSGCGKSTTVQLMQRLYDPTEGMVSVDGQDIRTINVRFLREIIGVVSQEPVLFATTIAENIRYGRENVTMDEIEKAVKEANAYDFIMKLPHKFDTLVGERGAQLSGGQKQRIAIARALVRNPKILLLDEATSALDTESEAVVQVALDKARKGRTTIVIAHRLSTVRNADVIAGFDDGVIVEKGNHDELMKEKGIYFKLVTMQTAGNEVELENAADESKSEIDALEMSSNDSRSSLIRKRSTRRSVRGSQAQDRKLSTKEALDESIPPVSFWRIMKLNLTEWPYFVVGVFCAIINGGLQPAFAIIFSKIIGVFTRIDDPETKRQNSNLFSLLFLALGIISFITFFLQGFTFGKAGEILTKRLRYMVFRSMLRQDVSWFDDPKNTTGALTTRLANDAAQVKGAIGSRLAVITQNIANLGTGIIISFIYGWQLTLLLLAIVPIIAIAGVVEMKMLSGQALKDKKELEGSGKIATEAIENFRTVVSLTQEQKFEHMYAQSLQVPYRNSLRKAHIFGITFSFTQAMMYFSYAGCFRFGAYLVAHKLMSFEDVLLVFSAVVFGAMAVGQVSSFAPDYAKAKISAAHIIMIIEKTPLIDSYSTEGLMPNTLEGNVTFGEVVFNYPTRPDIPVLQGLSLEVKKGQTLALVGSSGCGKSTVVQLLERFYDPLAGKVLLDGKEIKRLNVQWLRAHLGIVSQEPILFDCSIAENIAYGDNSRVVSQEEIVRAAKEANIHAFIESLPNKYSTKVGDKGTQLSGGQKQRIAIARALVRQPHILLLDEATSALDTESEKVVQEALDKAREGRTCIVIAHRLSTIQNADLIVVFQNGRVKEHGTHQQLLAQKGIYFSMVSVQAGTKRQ
compound,measurement,setting,value
"CC(C)(O)[C@@H]1CC[C@@](C)([C@H]2CC[C@]3(C)[C@@H]2[C@H](O)C[C@@H]2[C@@]4(C)CC[C@H](O)C(C)(C)[C@@H]4CC[C@]23C)O1 [PDQ, (20S,24S)-dammar-20,24-epoxy-3β, 12β, 25-triol]",IC50,"hMDR1(P-gp); MDCKII-MDR1, 25 μM 3H-digoxin, 15 min",410 nM
same,Transport activity of P-gp (main text: percentage inhibition),hMDR1(P-gp); inhibitor 0.1 μM,57.5±7.1%
same,Transport activity of P-gp (main text: percentage inhibition),hMDR1(P-gp); inhibitor 0.3 μM,57.0±9.2%
same,Transport activity of P-gp (main text: percentage inhibition),hMDR1(P-gp); inhibitor 1 μM,30.8±6.4%
same,Transport activity of P-gp (main text: percentage inhibition),hMDR1(P-gp); inhibitor 3 μM,23.2±7.1%
same,IC50,"hOATP1B3; HEK293A-OATP1B3, 3H-EG 1 µM, 2 min",> 30000 nM
same,DPM (3H-EG uptake by OATP1B3),hOATP1B3; inhibitor 0.1 μM,3332.7±245.2 DPM
same,DPM (3H-EG uptake by OATP1B3),hOATP1B3; inhibitor 0.3 μM,3200.3±323.1 DPM
same,DPM (3H-EG uptake by OATP1B3),hOATP1B3; inhibitor 1 μM,3093.3±182.0 DPM
same,DPM (3H-EG uptake by OATP1B3),hOATP1B3; inhibitor 3 μM,2980.7±186.5 DPM
same,DPM (3H-EG uptake by OATP1B3),hOATP1B3; inhibitor 10 μM,2985.0±250.2 DPM
same,DPM (3H-EG uptake by OATP1B3),hOATP1B3; inhibitor 30 μM,2649.0±200.2 DPM
same,bioavailability,[1]; PDQ in gattate pills,62.13%
same,biological half-time (t1/2),[1]; rat plasma,5.97 ± 0.43 h
same,concentration at peak (Cmax),[1]; rat plasma,3265.12 ± 700.26 ng/mL
same,time to peak (Tmax),[1]; rat plasma,4.0 ± 0.0 h
same,Cmax,"[1]; rats, effective oral dosage 15 mg/kg, no reference given, read-out: peak concentration (Cmax)",6.5 µM
same,cumulative amount excreted through feces,"[1]; rats, over 96 h",55.39%
same,long-term accumulation in tissues,"[1]; rats, single oral dose of 30.0 mg/kg",no long-term accumulation
